Laboratory results published in patent US12053465B2, “KCC2 expression enhancing compounds and uses thereof” (Whitehead Institute for Biomedical Research, priority 2017, dated 2024).
“Also recorded” adds a separate entry of the source.

Tests used:
Assay type in all cases: cell-based
immature mouse neurons [1] = test: Resting membrane potential and membrane capacitance of DIV6 immature mouse neurons
KCC2 expression [2] = test: Western blot of KCC2 in cultured human RTT neurons; settings: Western blot; for concentration at which treatment significantly increases KCC2 expression: cultured ESC-derived human RTT neurons; for KCC2 expression: cultured human RTT neurons
Procedure, shortened: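 Cultured neurons lysed in RIPA buffer (pH 7.6) with sonication; immunoblotted on PVDF with KCC2 antibody (1:2000) overnight at 4° C., HRP secondary.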

KCC2 expression [3] = test: Western blot of KCC2 in cultured WT human neurons; settings: cultured WT human neurons (WIBR1); Western blot
human RTT neurons [4] = test: Membrane capacitance (Cm) of cultured human RTT neurons; settings: for increase of neuronal Cm: RTT neurons transfected with KCC2 shRNA; for membrane capacitance (Cm): cultured human RTT neurons, vs DMSO or MeBIO control
Text: (§1) Moreover, a reduction in the number or the strength of excitatory glutamatergic synapses in RTT neurons has been observed in postmortem RTT patient brain samples (30), mouse models of RTT (53), and human stem cell-derived RTT neurons (54). Electrophysiology recording was utilized to assess whether KEECs could rescue the deficits in EGABA and excitatory synaptic transmission of RTT neurons. […] We further investigated whether the beneficial effect of KEECs is a direct result of the increases in neuronal KCC2 gene expression. […] Deficits in a number of morphological measurements, including nuclei size and neurite complexity and branching, are hallmarks of RTT neurons (54-56). […] To validate the morphological measurements, electrophysiological measurements of the neuronal membrane capacitance (Cm), an indicator of neuronal cell size (57) that is reduced in RTT neurons, were conducted.
Functionally mature human neuron cultures were obtained by seeding human WT or isogenic RTT NPCs on a layer of primary mouse astrocyte culture as previously described (57). In the cultured WT human neurons, KCC2 expression reaches mature level between 2-3 months (7). We therefore treated the WT or RTT human neurons 8-12 weeks in culture, with compounds for a duration of two weeks before conducting whole-cell patch-clamp recording. The extracellular bath solution, that perfused the recording chamber, consists of (in mM): 120 NaCl, 30 glucose, 25 HEPES, 5 KCl, 2 CaCl2, 1 MgCl2. The pH was adjusted to 7.3 with NaOH. The high-chloride internal pipette solution consists of (in mM): 147 KCl, 5 Na-phosphocreatine, 2 EGTA, 10 HEPES, 4 MgATP, and 0.5 Na2GTP; the pH 7.3 was adjusted with KOH. To record mini EPSC, the membrane potential was held at −70 mV, and 0.5 μM of TTX and 50 μM Picrotoxin were applied with bath solution to block action potential and GABAergic synaptic transmission.

human RTT neurons [5] = test: Neuronal morphology analysis of cultured human RTT neurons; settings: for neurite complexity (Sholl analysis): vs DMSO- or MeBIO-treated
Text: as §1, with “conducted. […] Fluorescent images of randomly-selected neurons were acquired on a Nikon Eclipse Ti epifluorescence microscope equipped with 20× lens. Nucleus size analysis of DAPI-stained neuronal nucleus were performed with ImageJ. Sholl analysis and measurements of the total neurite length and branch points were performed with the Simple Neurite Tracer plugin of the ImageJ software. Morphological analyses were carried out with about 60 randomly-selected neurons per treatment group. Image acquisition and analysis were carried out by different researchers, and automated analysis software pipeline were utilized to reduce human bias.” for “conducted.”

immature mouse neurons [6] = test: Gramicidin-perforated patch recording of EGABA in DIV6-7 immature mouse neurons

| SMILES | resting membrane potential (immature mouse neurons [1]) | concentration at which treatment significantly increases KCC2 expression (KCC2 expression [2]) [µM] | KCC2 expression (KCC2 expression [2]) | KCC2 expression (KCC2 expression [2]; listed as KIN 001-043) | KCC2 expression (KCC2 expression [3]) | increase of neuronal Cm (human RTT neurons [4]) | membrane capacitance (Cm) (human RTT neurons [4]) | nucleus size (human RTT neurons [5]) | number of neurite branches (human RTT neurons [5]) | total neurite length (human RTT neurons [5]) | neurite complexity (Sholl analysis) (human RTT neurons [5]) | EGABA after treatment (immature mouse neurons [6]; DIV6-7 immature mouse neurons, untreated about −50 mV) | significant hyperpolarizing shift in EGABA (immature mouse neurons [6]; DIV6 cultured immature mouse neurons) | membrane capacitance (immature mouse neurons [1]; vs DMSO control) |
| --- | --- | --- | --- | --- | --- | --- | --- | --- | --- | --- | --- | --- | --- | --- |
| O=C1Nc2cc(Br)ccc2/C1=C1/Nc2ccccc2/C1=N\O [BIO, (2Z,3E)-6′-bromo-3-(hydroxyimino)-[2,3′-biindolinylidene]-2′-one] | does not significantly alter the resting membrane potential | 0.3 | increased KCC2 expression levels significantly | increase KCC2 expression | significantly increased KCC2 expression | abolished the capability | significantly higher Cm, at levels comparable to isogenic WT human neurons | significantly increase the nucleus size | significantly increase | significantly increase | significant increase in neurite complexity | – | – | – |
| O=C(c1ccc(/C=C/c2n[nH]c3ccccc23)cc1)N1CCNCC1 [KW-2449, (E)-(4-(2-(1H-indazol-3-yl)vinyl)phenyl)(piperazin-1-yl)methanone] | does not significantly alter the resting membrane potential | 0.1 | increase KCC2 expression; also recorded: significant enhancement of KCC2 expression | – | significant increase in KCC2 expression in a dose-dependent manner | abolished the capability | significantly higher Cm, at levels comparable to isogenic WT human neurons | significantly increase the nucleus size | significantly increase | significantly increase | significant increase in neurite complexity | about −70 mV | induces significant hyperpolarizing shift in EGABA | significantly increase the membrane capacitance |
